Assay results as given in US8754115B2, “Fungicidal pyrazoles” (E I du Pont de Nemours and Company, priority 2010, dated 2014).
Marks after values point to notes of the source that are not given here.

How the values were obtained:
Type in all cases: in vivo
Botrytis cinerea = assay: Test A: preventive spray on tomato seedlings, visual disease rating (tomato Botrytis)
Procedure, shortened: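 Preventive test: Botrytis cinerea spores applied one day after run-off spraying at 200 ppm (≈800 g/ha), or 40 ppm where asterisked. Incubation 48 h at 20 °C in saturated air, then 3 days at 24 °C; disease scored visually from 0 (no control) to 100 (complete control) versus untreated.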

Septoria nodorum = assay: Test C: preventive spray on wheat seedlings, visual disease rating (Septoria glume blotch)
Source text: (§1) General protocol for preparing test suspensions for Tests A-F: the test compounds were first dissolved in acetone in an amount equal to 3% of the final volume and then suspended at the desired concentration (in ppm) in acetone and purified water (50/50 mix by volume) containing 250 ppm of the surfactant Trem® 014 (polyhydric alcohol esters). The resulting test suspensions were then used in Tests A-F. Spraying a 200 ppm test suspension to the point of run-off on the test plants was the equivalent of a rate of 800 g/ha. Unless otherwise indicated, the rating values indicate a 200 ppm test suspension was used. (An asterisk “*” next to the rating value indicates a 40 ppm test suspension was used.)
The test suspension was sprayed to the point of run-off on wheat seedlings. The following day the seedlings were inoculated with a spore suspension of Septoria nodorum (the causal agent of Septoria glume blotch) and incubated in a saturated atmosphere at 24° C. for 48 h, and then moved to a growth chamber at 20° C. for 6 days, after which time visual disease ratings were made.
(§2) Results for Tests A-F are given in Table A. In the Table, a rating of 100 indicates 100% disease control and a rating of 0 indicates no disease control (relative to the controls). A dash (-) indicates no test results. An asterisk “*” next to the rating value indicates a 40 ppm test suspension was used.

[1] = system: Blumeria graminis f. sp. tritici; assay: Test F: preventive spray on wheat seedlings, visual disease rating (wheat powdery mildew)
Procedure, shortened: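 Visual ratings (0–100% control relative to controls) taken 8 days after spore-dust inoculation at 20° C. Inoculation followed one day after a protective run-off spray of 200 ppm suspension, equal to 800 g/ha, or 40 ppm where flagged, made in acetone/water with 250 ppm surfactant.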

Septoria tritici = assay: Test D: preventive spray on wheat seedlings, visual disease rating (wheat leaf blotch)
Procedure, shortened: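 Protection was scored visually on a 0–100% disease-control scale versus controls, 19 days after plants were moved to 20 °C following 48 h of 24 °C saturated humidity. Spore inoculation with S. tritici took place one day after a preventive run-off spray, usually at 200 ppm (800 g/ha) and at 40 ppm where asterisked.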

Alternaria solani = assay: Test B: preventive spray on tomato seedlings, visual disease rating (tomato early blight)
Source text: as §1
The test suspension was sprayed to the point of run-off on tomato seedlings. The following day the seedlings were inoculated with a spore suspension of Alternaria solani (the causal agent of tomato early blight) and incubated in a saturated atmosphere at 27° C. for 48 h, and then moved to a growth chamber at 20° C. for 5 days, after which time visual disease ratings were made.
as §2

[2] = system: Puccinia recondite f. sp. tritici; assay: Test E2: preventive spray on wheat seedlings, visual disease rating (wheat leaf rust)
Procedure, shortened: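 Wheat seedlings were inoculated with leaf rust spores one day after a run-off spray of compound at 200 ppm (asterisk: 40 ppm) in 50/50 acetone/water with 250 ppm Trem 014. Incubation: 24 h saturated humidity, 20 °C; then 7 days growth chamber, 20 °C. Disease control scored visually, 0–100% relative to controls.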

[3] = system: Puccinia recondite f. sp. tritici; assay: Test E1: curative spray on wheat seedlings after inoculation, visual disease rating (wheat leaf rust)
Source text: as §1
Wheat seedlings were inoculated with a spore suspension of Puccinia recondite f. sp. tritici (the causal agent of wheat leaf rust) and incubated in a saturated atmosphere at 20° C. for 24 h, and then moved to a growth chamber at 20° C. for 2 days. After 2 days, the test suspension was sprayed to the point of run-off on the wheat seedlings, and then the seedlings were moved back to the growth chamber at 20° C. for 6 days. Upon removal, visual disease ratings were made.
as §2

[4] = asterisk: 40 ppm test suspension
[5] = no asterisk: standard test suspension, not 40 ppm, 100 = 100% disease control, 0 = none
[6] = no asterisk: standard test suspension, not 40 ppm

Row | SMILES | Test C rating (% disease control) (Septoria nodorum; [4]) | Test F rating (% disease control) [1, 4] | Test D rating (% disease control) (Septoria tritici; [4]) | Test B rating (% disease control) (Alternaria solani; [4]) | Test E2 rating (% disease control) [2, 4] | Test C rating (% disease control) (Septoria nodorum; [6]) [%] | Test F rating (% disease control) [1, 6] [%] | Test D rating (% disease control) (Septoria tritici; [6]) [%] | Test B rating (% disease control) (Alternaria solani; [6]) [%] | Test E2 rating (% disease control) [2, 6] [%] | Test E1 rating (% disease control) [3, 6] [%] | other results
1 | Cc1nn(C)c(-c2c(Cl)cncc2Cl)c1C(=O)c1ccc(F)cc1Cl [compound 96] | 0* % | 26* % | 0* % | 0* % | 0* % |  |  |  |  |  |  | Test A rating (% disease control) (Botrytis cinerea; [4]): 60* %
2 | Cn1nc(Br)c(C(=O)c2ccc(F)cc2F)c1-c1ccc(F)cc1Cl [compound 48] |  |  |  |  |  | 0 | 0 | 99 | 0 | 0 |  | Test A rating (% disease control) (Botrytis cinerea; [5]): 26%
3 | Cc1nn(C)c(-c2ccc(F)cc2Cl)c1Nc1ccc(F)cc1F [compound 49] | 0* % | 87* % | 96* % | 0* % | 74* % |  |  |  |  |  |  | Test A rating (% disease control) (Botrytis cinerea; [4]): 100* %
4 | Cc1nn(C)c(-c2ccc(C#N)cc2F)c1Oc1ccc(F)cc1F [compound 26] |  |  |  |  |  | 0 | 64 |  | 0 | 79 | 0 | Test A rating (% disease control) (Botrytis cinerea; [5]): 100%
5 | Cc1nn(C)c(-c2c(F)cccc2F)c1C(F)c1ccc(Cl)cc1Cl (stereo not drawn) [Compound 92] | 94* % | 100* % | 100* % | 99* % | 99* % |  |  |  |  |  |  | Test E1 rating (% disease control) [3, 4]: 74* %
6 | Cc1nn(C)c(-c2c(Cl)cccc2Cl)c1C(O)c1c(F)cc(F)cc1F (stereo not drawn) [compound 70] |  |  |  |  |  | 60 | 99 | 100 | 99 | 100 | 94 | 
7 | Cc1nn(C)c(-c2ccc(Cl)cc2Cl)c1C(=O)c1ccc(F)cc1F [compound 89] |  |  |  |  |  | 0 | 100 | 93 | 0 | 89 | 0 | 
8 | Cc1nn(C)c(-c2ccccc2I)c1C(O)c1ccc(F)cc1Br (stereo not drawn) [compound 88] |  |  |  |  |  | 0 | 89 | 99 | 0 | 68 | 0 | 
9 | Cc1nn(C)c(-c2ccccc2I)c1C(=O)c1ccc(F)cc1Br [compound 81] |  |  |  |  |  | 0 | 99 | 0 | 46 | 0 |  | Test A rating (% disease control) (Botrytis cinerea; [5]): 54%
10 | Cc1nn(C)c(-c2ccc(F)cc2F)c1C(O)c1ccc(F)cc1Cl (stereo not drawn) [compound 71] | 73* % | 99* % | 100* % | 78* % | 99* % |  |  |  |  |  |  | Test E1 rating (% disease control) [3, 4]: 88* %
11 | Cc1nn(C)c(-c2ccc(F)cc2Br)c1C(=O)c1ccc(F)cc1F [compound 73] | 0* % | 34* % | 14* % | 60* % | 0* % |  |  |  |  |  |  | Test E1 rating (% disease control) [3, 4]: 0* %
12 | Cc1nn(C)c(-c2c(F)cccc2Cl)c1C(O)c1ccc(Cl)cc1Cl (stereo not drawn) [compound 90] | 99* % |  | 100* % | 100* % | 100* % |  | 100 |  |  |  |  | Test E1 rating (% disease control) [3, 4]: 74* %
13 | Cc1nn(C)c(-c2ccc(F)cc2Br)c1C(O)c1ccc(F)cc1F (stereo not drawn) [compound 76] |  |  |  |  |  | 60 | 100 | 100 | 99 | 100 | 99 | 
14 | Cc1nn(C)c(-c2ccc(F)cc2F)c1C(O)c1ccc(F)cc1F (stereo not drawn) [Compound 72, α-(2,4-difluorophenyl)-5-(2,4-difluorophenyl)-1,3-dimethyl-1H-pyrazole-4-methanol] |  |  |  |  |  |  |  |  |  |  |  | pest or weed control at 40 ppm (Septoria nodorum; Parastagonospora nodorum, 192 h, asterisk: 40 ppm test suspension): 0%; pest or weed control at 40 ppm ([1]; Blumeria graminis, 192 h, asterisk: 40 ppm test suspension): 98%; pest or weed control at 40 ppm (Septoria tritici; Zymoseptoria tritici, 504 h, asterisk: 40 ppm test suspension): 100%; pest or weed control at 40 ppm (Alternaria solani; Alternaria solani, 168 h, asterisk: 40 ppm test suspension): 53%; pest or weed control at 40 ppm ([2]; 192 h, asterisk: 40 ppm test suspension): 96%; pest or weed control at 40 ppm ([3]; 144 h, asterisk: 40 ppm test suspension): 18%
15 | Cc1nn(C)c(-c2c(Cl)cccc2Cl)c1C(O)c1ccc(Cl)cc1 (stereo not drawn) [compound 77] |  |  |  |  |  | 0 | 89 | 99 | 93 | 79 | 0 | 
16 | Cc1nn(C)c(-c2c(Cl)cccc2Cl)c1C(O)c1ccc(F)cc1F (stereo not drawn) [compound 74] |  |  |  |  |  | 92 | 98 | 99 | 100 | 99 | 0 | 
17 | Cc1nn(C)c(-c2c(F)cccc2Cl)c1C(O)c1ccc(F)cc1Br (stereo not drawn) [compound 37] |  |  |  |  |  | 100 | 100 | 100 | 99 | 100 |  | Test A rating (% disease control) (Botrytis cinerea; [5]): 100%
18 | Cc1nn(C)c(-c2c(F)cccc2Cl)c1C(F)c1c(F)cc(F)cc1F (stereo not drawn) [Compound 75] | 87* % | 99* % | 100* % | 100* % | 100* % |  |  |  |  |  |  | Test E1 rating (% disease control) [3, 4]: 74* %
